Source: patent US10946074B2, “GLP-1 derivatives and uses thereof” (Novo Nordisk A/S, priority 2016, dated 2021)
Like-named read-outs stand apart in the source and are kept apart here.

Tests used:
human GLP-1 receptor [1] = biological target: T1, human GLP-1 receptor (Homo sapiens, UniProt P43220); assay: In vitro potency, CRE luciferase reporter gene assay in BHK cells expressing the human GLP-1 receptor; format: cell-based; details: 3 h, 0% HSA, average of at least three replicates
T1 construct: expressed in transfected cells; host or cells: membranes of BHK cells (parent BHKTS13), clone FCW467-12A
Description: When assay incubation is completed the luciferase substrate (luciferin) is added and the enzyme converts luciferin to oxyluciferin to produce bioluminescence. The luminescence is measured as the readout for the assay.
The cells were cultured at 5% CO2 in cell culture medium. They were aliquoted and stored in liquid nitrogen. Before each assay an aliquot was taken up and washed twice in PBS before being suspended at the desired concentration in the assay specific buffer. For 96-well plates the suspension was made to give a final concentration of 5×10^3 cells/well.
Assay medium consisted of DMEM w/o phenol red, 10 mM Hepes and 1× Glutamax. The assay buffer consisted of 2% w/v ovalbumin and 0.2% v/v Pluronic F-68 in assay medium.
3) Cells were counted and adjusted to 5×10^3 cells/50 μl (1×10^5 cells/ml) in assay medium. A 50 μl aliquot of cells was transferred to each well in the assay plate.
4) Stocks of the test compounds and reference compounds were diluted to a concentration of 0.2 μM in assay buffer. […] Compounds were tested at the following final concentrations: 1×10^−7 M, 1×10^−8 M; 1×10^−9 M, 1×10^−10 M, 1×10^−11 M, 1×10^−12 M, 1×10^−13 M, and 1×10^−14 M. 6) The assay plate was incubated for 3 h in a 5% CO2 incubator at 37° C. […] 8) A 100 μl aliquot of steadylite plus reagent was added to each well of the assay plate. 9) Each assay plate was covered with aluminum foil to protect it from light and shaken for 30 min at room temperature. 10) Each assay plate was read in a BioTek Synergy 2 Multi-Mode Reader. Calculations and Results
The data from the BioTek Synergy 2 Multi-Mode Reader were transferred to GraphPad Prism software. The software performs a non-linear regression (log(agonist) vs. response (three parameters)).
A minimum of three replicates were measured for each sample. The reported EC50 values are averages of the measured values for each compound.

human GLP-1 receptor [2] = biological target: T1, human GLP-1 receptor; assay: GLP-1 receptor binding, competitive binding assay with 125I-GLP-1 on isolated membranes (SPA)
Description: The receptor binding is reported as the concentration at which half of the labelled ligand is displaced from the receptor, the IC50 value.
Buffer 1 consisted of 20 mM Na-HEPES plus 10 mM EDTA and pH was adjusted to 7.4. Buffer 2 consisted of 20 mM Na-HEPES plus 0.1 mM EDTA and pH was adjusted to 7.4. Assay buffer consisted of 50 mM HEPES supplemented with 5 mM EGTA, 5 mM MgCl2, 0.005% w/v Tween 20 and pH was adjusted to 7.4. An 8% albumin stock consisted of HSA dissolved at 8% (w/v) in assay buffer. An 0.02% albumin stock consisted of HSA dissolved at 0.02% (w/v) in assay buffer.
To make a membrane preparation the cells were grown to approximately 80% confluence. The cells were washed twice in phosphate-buffered saline and harvested. The cells were pelleted using a brief centrifugation and the cell pellet was kept on ice. The cell pellet was homogenised with ULTRA-THURRAX™ dispersing instrument for 20-30 seconds in a suitable amount of buffer 1 (e.g., 10 ml). The homogenate was centrifuged for 15 minutes. The pellet was re-suspended (homogenised) in 10 ml buffer 2 and centrifuged. This step was repeated once more. The resulting pellet was re-suspended in buffer 2 and the protein concentration was determined. The membranes were aliquoted and stored at minus 80° C.
For the receptor binding assay in the presence of low HSA (0.005% (w/v)) 50 μl of the assay buffer was added to each well of an assay plate. Assay continued with step 3.
For the receptor binding assay in the presence of high HSA (2% (w/v)) 50 μl of the 8% (w/v) albumin stock was added to each well of an assay plate. Assay continued with step 3.
Cell membrane aliquots were thawed and diluted to their working concentration. Fifty μl were added to each well in the assay plate.
WGA SPA beads were suspended in assay buffer at 20 mg/ml. The suspension was diluted to 10 mg/ml in assay buffer just prior to addition to the assay plate. Fifty μl were added to each well in the assay plate.
A 25 μl aliquot was reserved for measuring total counts/well.
The assay plate was incubated for 2 h at 30° C.
The assay plate was centrifuged for 10 min.
The assay plate was read in a Packard TopCount NXT instrument.
Individual replicates were analysed using non-linear regression in GraphPad Prism. IC50 values were calculated by the software and reported in nM. A minimum of two replicates was measured for each sample. The reported values are averages of all of the measured values for each compound.

[3] = high HSA (2.0% (w/v) final assay concentration), read-out: GLP-1 receptor binding High HSA IC50
[4] = low HSA (max. 0.001% (w/v) final assay concentration), read-out: GLP-1 receptor binding Low HSA IC50

T1 sequence (P43220 24-463): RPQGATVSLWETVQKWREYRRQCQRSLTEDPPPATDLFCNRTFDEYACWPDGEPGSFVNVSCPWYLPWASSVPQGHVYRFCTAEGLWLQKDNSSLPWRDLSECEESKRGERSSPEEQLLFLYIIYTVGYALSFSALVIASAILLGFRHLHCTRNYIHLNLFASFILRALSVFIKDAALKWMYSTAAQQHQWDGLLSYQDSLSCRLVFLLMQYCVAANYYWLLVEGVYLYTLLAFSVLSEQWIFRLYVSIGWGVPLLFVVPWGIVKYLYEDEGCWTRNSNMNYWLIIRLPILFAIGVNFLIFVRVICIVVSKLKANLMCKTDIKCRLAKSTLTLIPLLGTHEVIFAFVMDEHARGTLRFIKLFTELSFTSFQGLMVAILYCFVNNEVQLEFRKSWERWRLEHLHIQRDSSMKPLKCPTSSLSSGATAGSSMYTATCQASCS

EC50 (human GLP-1 receptor [1]) | IC50 (human GLP-1 receptor [2]; [3]) | IC50 (human GLP-1 receptor [2]; [4]) | SMILES
0.0147 nM | 35.4 nM | 0.383 nM | CC[C@H](C)[C@H](NC(=O)[C@H](Cc1ccccc1)NC(=O)[C@H](CCC(=O)O)NC(=O)[C@H](CCCNC(=N)N)NC(=O)[C@H](C)NC(=O)[C@H](C)NC(=O)[C@H](CCC(N)=O)NC(=O)[C@H](CCC(=O)O)NC(=O)[C@H](CCC(=O)O)NC(=O)[C@H](CC(C)C)NC(=O)[C@H](Cc1ccc(O)cc1)NC(=O)[C@H](CO)NC(=O)[C@H](CO)NC(=O)[C@@H](NC(=O)[C@H](CC(=O)O)NC(=O)[C@H](CO)NC(=O)[C@@H](NC(=O)[C@H](Cc1ccccc1)NC(=O)[C@@H](NC(=O)CNC(=O)[C@H](CCC(=O)O)NC(=O)C(C)(C)NC(=O)[C@@H](N)Cc1c[nH]cn1)[C@@H](C)O)[C@@H](C)O)C(C)C)C(=O)N[C@@H](C)C(=O)N[C@@H](Cc1c[nH]c2ccccc12)C(=O)N[C@@H](CC(C)C)C(=O)N[C@H](C(=O)N[C@@H](CCCNC(=N)N)C(=O)NCC(=O)N[C@@H](CCCNC(=N)N)C(=O)N[C@@H](CCCCNC(=O)COCCOCCNC(=O)COCCOCCNC(=O)CN(CCCNC(=O)COCCOCCNC(=O)COCCOCCNC(=O)COCCOCCNC(=O)COCCOCCNC(=O)CC[C@H](NC(=O)[C@H]1CC[C@H](CNC(=O)CCCCCCCCCCCCCCCCCCC(=O)O)CC1)C(=O)O)CCCNC(=O)COCCOCCNC(=O)COCCOCCNC(=O)COCCOCCNC(=O)COCCOCCNC(=O)CC[C@H](NC(=O)[C@H]1CC[C@H](CNC(=O)CCCCCCCCCCCCCCCCCCC(=O)O)CC1)C(=O)O)C(=O)O)C(C)C [Comparative 13A]
0.0137 nM | 42.3 nM | 0.536 nM | CC[C@H](C)[C@H](NC(=O)[C@H](Cc1ccccc1)NC(=O)[C@H](CCC(=O)O)NC(=O)[C@H](CCCNC(=N)N)NC(=O)[C@H](C)NC(=O)[C@H](C)NC(=O)[C@H](CCC(N)=O)NC(=O)[C@H](CCC(=O)O)NC(=O)[C@H](CCC(=O)O)NC(=O)[C@H](CC(C)C)NC(=O)[C@H](Cc1ccc(O)cc1)NC(=O)[C@H](CO)NC(=O)[C@H](CO)NC(=O)[C@@H](NC(=O)[C@H](CC(=O)O)NC(=O)[C@H](CO)NC(=O)[C@@H](NC(=O)[C@H](Cc1ccccc1)NC(=O)[C@@H](NC(=O)CNC(=O)[C@H](CCC(=O)O)NC(=O)C(C)(C)NC(=O)[C@@H](N)Cc1c[nH]cn1)[C@@H](C)O)[C@@H](C)O)C(C)C)C(=O)N[C@@H](C)C(=O)N[C@@H](Cc1c[nH]c2ccccc12)C(=O)N[C@@H](CC(C)C)C(=O)N[C@H](C(=O)N[C@@H](CCCNC(=N)N)C(=O)NCC(=O)N[C@@H](CCCNC(=N)N)C(=O)N[C@@H](CCCCNC(=O)COCCOCCNC(=O)COCCOCCNC(=O)[C@H](CCCCNC(=O)COCCOCCNC(=O)COCCOCCNC(=O)COCCOCCNC(=O)COCCOCCNC(=O)CC[C@H](NC(=O)[C@H]1CC[C@H](CNC(=O)CCCCCCCCCCCCCCCCCCC(=O)O)CC1)C(=O)O)NC(=O)COCCOCCNC(=O)COCCOCCNC(=O)COCCOCCNC(=O)COCCOCCNC(=O)CC[C@H](NC(=O)[C@H]1CC[C@H](CNC(=O)CCCCCCCCCCCCCCCCCCC(=O)O)CC1)C(=O)O)C(=O)O)C(C)C [Comparative 12A]
